From patent US4973472A, “Dental plaque inhibitor” (Senju Pharmaceutical Col., Ltd., priority 1988, dated 1990)

How the values were obtained:
[1] = tested on: GTase; assay: GTase-inhibitory activity (formation of insoluble glucan from sucrose, turbidity at 550 nm); assay type: biochemical, Streptococcus mutans ATCC 33402; details: for Optical density of reaction system: 550 nm
Description: The enzyme GTase was prepared from Streptococcus mutans and using sucrose as the substrate, the inhibitory effect of the test substances on the formation of insoluble glucan was determined.
The preparation of GTase was carried out in accordance with the description in Methods for Isolation of Microorganisms (Kazue Yamazato (ed.): R&D Planning), page 733, (1) Preparation of cell-free GTase. Thus, Streptococcus mutans ATCC 33402 was cultured (inoculum size 1%) in brain heart infusion broth (Difco; hereinafter referred to as BHI medium) under stationary conditions at 37° C. for 18 hours and the resulting culture was centrifuged at 4,000 rpm for 10 minutes. The supernatant was taken and ammonium sulfate was added at a final concentration of 60% saturation. The mixture was gently stirred at 4° C. overnight for salting-out and the precipitate was dissolved in 5 mM potassium phosphate buffer (pH 6.5). This solution was then dialyzed against the same buffer at 4° C. overnight to give a crude GTase preparation.
The assay of GTase activity was carried out by the method described in Methods for Isolation of Microorganisms (ibid), page 733, (2) Assay of activities in microbial culture filtrates with minor modification. Thus, the solution prepared as per Tables 1 and 2 was used as a test solution and the corresponding solution prepared by using the same quantity of distilled water in lieu of the test substance solution in otherwise the same composition was used as a control solution. Test tubes were filled with 5 ml aliquots of the test solution or the control solution and allowed to stand in upright position at 37° C. for 16 hours. After completion of the reaction each tube was shaken well to agitate the reaction system and the optical density at 550 nm was measured to find the degree of turbidity. The inhibitory activity of the test substance against GTase was calculated as a percentage with the turbidity of the control reaction system being taken as 100%. […]
Among the substances falling under the purview of the present invention, those mentioned in Table 3 (Substances 1 through 6) were used as test substances.
For each of the substances mentioned in Table 3, the GTase activity at the test substance concentration of 0.5% in the reaction system was assayed to estimate the inhibitory activity of the test substance.
For Substance 1, GTase activity was assayed in the reaction system corresponding to each concentration of the test substance in the range of 0.01% to 1.0% and to obtain correlation between inhibitory activity and test substance concentration.
For Substance 1 at a concentration of 0.5%, either aqueous sodium hydroxide solution or hydrochloric acid was added to portions of the substrate-test substance solution shown in Table 1 to prepare solutions adjusted to pH 4, 5, 6, 7 and 8, respectively, and using each of these solutions, the reaction was carried out at the corresponding pH. The GTase activity at each pH was assayed and the correlation between reaction system pH and inhibitory activity was studied.

[2] = tested on: Streptococcus mutans; assay: Prevention of the adhesion of tooth decaying bacteria to the human tooth; assay type: cell-based, Streptococcus mutans ATCC 330402; details: 0.5% Substance 1; BHI medium with 5% sucrose; 37° C., 6 hours; scanning electron microscope x 4,000
Description: Two test tubes were respectively filled with BHI medium containing 5% of sucrose and a sterilized human tooth was suspended in each of the tubes using a stainless steel wire. After Substance 1 was added to one of the tubes at a final concentration of 0.5%, a culture of Streptococcus mutans ATCC 330402 grown in BHI medium at 37° C. for 18 hours was added to both tubes at a final concentration of 10^8 CFU/ml. The tubes were further incubated at 37° C. for 6 hours, at the end of which time the teeth were taken out, rinsed and observed with a scanning electron microscope at a magnification of x 4,000.

[3] = Table 4, 0.5% test substance, 37° C., 16 hours, buffer pH 6.5
[4] = Table 4, 0.5% test substance, 37° C., 16 hours, buffer pH 6.5, control 0.55

SMILES: Cc1c(C)c2c(c(C)c1OP(=O)(O)OC1=C(O)C(C(O)CO)OC1=O)CCC(C)(CCCC(C)CCCC(C)CCCC(C)C)O2 (centres unmarked) [Substance 1]
- inhibitory activity, dependence on concentration ([1]; 0.01% to 1.0%): concentration-dependent
- inhibition rates ([1]; 0.075% and higher concentrations): not less than 90%
- formation of insoluble glucan ([1]; 0.5%, pH range where GTase was active): very slight
- % Inhibition [1, 3]: 92.7%
- Optical density of reaction system [1, 4]: 0.04
- % Inhibition ([1]; Table 5, concentration 0.01%): 59.7%
- Optical density of reaction system ([1]; Table 5, concentration 0.01%, control 0.496): 0.20
- % Inhibition ([1]; Table 5, concentration 0.025%): 59.7%
- Optical density of reaction system ([1]; Table 5, concentration 0.025%, control 0.496): 0.20
- % Inhibition ([1]; Table 5, concentration 0.05%): 59.7%
- Optical density of reaction system ([1]; Table 5, concentration 0.05%, control 0.496): 0.20
- % Inhibition ([1]; Table 5, concentration 0.075%): 89.9%
- Optical density of reaction system ([1]; Table 5, concentration 0.075%, control 0.496): 0.05
- % Inhibition ([1]; Table 5, concentration 0.1%): 96.0%
- Optical density of reaction system ([1]; Table 5, concentration 0.1%, control 0.496): 0.02
- % Inhibition ([1]; Table 5, concentration 0.25%): 96.0%
- Optical density of reaction system ([1]; Table 5, concentration 0.25%, control 0.496): 0.02
- % Inhibition ([1]; Table 5, concentration 0.5%): 96.0%
- Optical density of reaction system ([1]; Table 5, concentration 0.5%, control 0.496): 0.02
- % Inhibition ([1]; Table 5, concentration 1.0%): 96.0%
- Optical density of reaction system ([1]; Table 5, concentration 1.0%, control 0.496): 0.02
- Optical density ([1]; Table 6, pH 4, 0.5% test substance, control 0.08): 0.05
- % Inhibition ([1]; Table 6, pH 5, 0.5% test substance): 71.4%
- Optical density ([1]; Table 6, pH 5, 0.5% test substance, control 0.35): 0.06
- % Inhibition ([1]; Table 6, pH 6, 0.5% test substance): 91.9%
- Optical density ([1]; Table 6, pH 6, 0.5% test substance, control 0.62): 0.05
- % Inhibition ([1]; Table 6, pH 7, 0.5% test substance): 94.9%
- Optical density ([1]; Table 6, pH 7, 0.5% test substance, control 0.59): 0.03
- Optical density ([1]; Table 6, pH 8, 0.5% test substance, control 0.05): 0.02
- inhibition rates ([1]; concentration of 0.01%): about 60%
- inhibition rate ([1]; pH 5, 0.5%): about 70%
- inhibition rate ([1]; pH 6 and 7, 0.5%): not less than 90%
- adherent bacterial cells and colonies on the tooth surface (FIG. 2) [2]: neither adherent bacterial cells nor colonies
- adhesion of bacterial cells and subsequent formation of colonies on the tooth surface [2]: completely inhibited

SMILES: Cc1cc(OP(=O)(O)OC2=C(O)C(C(O)CO)OC2=O)c(C)c2c1OC(C)(CCCC(C)CCCC(C)CCCC(C)C)CC2 (centres unmarked) [Substance 2]
- % Inhibition [1, 3]: 94.5%
- Optical density of reaction system [1, 4]: 0.03

SMILES: Cc1c(OP(=O)(O)OC2=C(O)C(C(O)CO)OC2=O)cc2c(c1C)OC(C)(CCCC(C)CCCC(C)CCCC(C)C)CC2 (centres unmarked) [Substance 3]
- % Inhibition [1, 3]: 94.5%
- Optical density of reaction system [1, 4]: 0.03

SMILES: Cc1cc(OP(=O)(O)OC2=C(O)C(C(O)CO)OC2=O)cc2c1OC(C)(CCCC(C)CCCC(C)CCCC(C)C)CC2 (centres unmarked) [Substance 4]
- % Inhibition [1, 3]: 94.5%
- Optical density of reaction system [1, 4]: 0.03

SMILES: CC(C)CCCC(C)CCCC(C)CCCC1(C)CCc2cc(OP(=O)(O)OC3=C(O)C(C(O)CO)OC3=O)ccc2O1 (centres unmarked) [Substance 5]
- % Inhibition [1, 3]: 94.5%
- Optical density of reaction system [1, 4]: 0.03

SMILES: Cc1c(C)c2c(c(C)c1OP(=O)(O)OC1=C(O)C(C(O)CO)OC1=O)CCC(C)(CCCC(C)CCCC(C)CCCC(C)C)O2 (centres unmarked) [Substance 6]
- % Inhibition [1, 3]: 95.8%
- Optical density of reaction system [1, 4]: 0.02
